According to patent US6033867A, “Fructosyl amino acid oxidase, process for producing the same, and method of assaying amadori compounds using the enzyme” (Kyoto Daiichi Kagaku Co., Ltd., priority 1995, dated 2000):

Columns and labels:
[1] = tested on: FAOD-A; test: Effect of metal ion on the activity of FAOD-A; assay type: biochemical, A. terreus IFO6365; details: for effect of metal ion on FAOD-A, in words: 1 mM
Protocol: (§1) To an enzyme solution was added a solution containing a metal ion to be tested at a final concentration of 1 mM in 0.1 M Tris-HCl buffer (pH 8.0). After 5-minute-incubation at 30° C., the enzyme activity was assayed.

[2] = tested on: FAOD-A; test: Effect of various inhibitors on FAOD-A activity; assay type: biochemical, A. terreus IFO6365; details: for inhibition of FAOD-A activity, in words: PCMB 0.1 mM, others 1 mM
Protocol: as §1
(§2) The inhibitory effect of various substances was tested in a manner substantially analogous to that described in (1) above. In the present test, the final concentration of parachloro mercuric benzoate (PCMB) is 0.1 mM while that of others 1 mM.

[3] = biological target: T1, FAOD-L (Aspergillus terreus, UniProt Q92204); test: Effect of various inhibitors on FAOD-L activity; assay type: biochemical, A. terreus GP1; details: for inhibition of FAOD-L activity, in words: PCMB 0.1 mM, others 1 mM
T1 construct: 94 kDa by gel filtration, 48 kDa subunit, so homodimer
Protocol: as §1, §2

[4] = biological target: T1, FAOD-L; test: Effect of metal ion on the activity of FAOD-L; assay type: biochemical, A. terreus GP1; details: for effect of metal ion on FAOD-L, in words: 1 mM; for relative activity (%): material 1 mM, 0.1 M Tris-HCl pH 8.0, 5 min at 30° C., None = 100
Protocol: as §1

[5] = tested on: FAOD-A originated from A. terreus IFO6365; test: Substrate specificity of FAOD-A; assay type: biochemical
Protocol: (§3) A 100 mM FZL solution was prepared by dissolving previously-obtained FZL in distilled water. To 100 μl of 45 mM 4-aminoantipyrine, 100 μl of 60 U/ml peroxidase, 100 μl of 60 mM phenol, 1 ml of 0.1 M Tris-HCl buffer (pH 8.0) and 50 μl of enzyme solution was added distilled water to total volume of 3.0 ml. The mixture was incubated at 30° C. for 2 minutes, 50 μl of 100 mM FZL solution was added thereto, and the time course of absorbance at 505 nm was measured. The amount (μmole) of hydrogen peroxide generated per minute was calculated on the basis of molar absorptivity (5.16×10^3 M^-1 cm^-1) of quinone pigment produced, and the resultant numerical value was taken as a unit(U) of enzyme activity.

[6] = biological target: T2, FAOD-L originated from A. terreus GP1 (Aspergillus terreus, UniProt Q92204); test: Substrate specificity of FAOD-L; assay type: biochemical
T2 construct: 94 kDa by gel filtration, 48 kDa subunit, so homodimer
T2 sequence (Q92204 1-437): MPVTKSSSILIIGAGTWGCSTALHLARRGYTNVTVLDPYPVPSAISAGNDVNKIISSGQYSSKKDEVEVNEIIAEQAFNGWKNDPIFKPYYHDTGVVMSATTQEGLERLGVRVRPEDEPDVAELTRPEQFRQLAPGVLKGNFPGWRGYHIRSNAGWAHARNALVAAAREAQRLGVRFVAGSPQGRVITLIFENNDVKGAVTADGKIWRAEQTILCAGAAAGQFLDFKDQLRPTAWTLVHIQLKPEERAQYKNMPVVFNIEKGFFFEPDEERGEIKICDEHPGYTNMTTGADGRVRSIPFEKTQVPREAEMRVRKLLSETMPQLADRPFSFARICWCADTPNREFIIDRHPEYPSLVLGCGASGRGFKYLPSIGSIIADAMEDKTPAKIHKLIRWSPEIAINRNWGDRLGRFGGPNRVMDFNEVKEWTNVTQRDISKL
Protocol: as §3

[7] = material 1 mM, 0.1 M Tris-HCl pH 8.0, 5 min at 30° C., None = 100
[8] = substrate concentration 1.67 mM

[Cl-].[Li+] [LiCl]
relative activity (%) [1, 7]: 103%

NO [hydroxylamine]
relative activity (%) ([2]; material 1 mM, None = 100): 10%
relative activity (%) ([3]; material 1 mM, None = 100): 2%

[Zn+2] [zinc]
effect of metal ion on FAOD-A, in words [1]: inhibited
effect of metal ion on FAOD-L, in words [4]: inhibitory

mercury
effect of metal ion on FAOD-A, in words [1]: inhibited
effect of metal ion on FAOD-L, in words [4]: inhibited completely

[Cl-].[Cs+] [CsCl]
relative activity (%) [1, 7]: 108%

[Cu+2] [copper]
effect of metal ion on FAOD-L, in words [4]: inhibitory

NNc1ccccc1 [phenylhydrazine]
inhibition of FAOD-A activity, in words [2]: inhibit the FAOD-A activity completely

[Ca+2].[Cl-].[Cl-] [CaCl2]
relative activity (%) [1, 7]: 104%
relative activity (%) [4]: 96%

c1cnc2c(c1)ccc1cccnc12 [o-Phenanthroline]
relative activity (%) ([2]; material 1 mM, None = 100): 62%

NN [hydrazine]
inhibition of FAOD-A activity, in words [2]: inhibit the FAOD-A activity completely
inhibition of FAOD-L activity, in words [3]: inhibit the FAOD-L activity strongly

N^ε -Fructosylpoly-L-lysine
Specific activity (%) ([5]; substrate concentration 0.02%): 2.0%
Specific activity (%) ([6]; substrate concentration 0.02%): 0.30%

O=C(O)c1cc[c]([Hg][Cl])cc1 [p-CMB, parachloro mercuric benzoate]
inhibition of FAOD-A activity, in words [2]: inhibit the FAOD-A activity completely
inhibition of FAOD-L activity, in words [3]: inhibit the FAOD-L activity strongly

[Co] [cobalt]
effect of metal ion on FAOD-A, in words [1]: inhibitory

[Ag+] [silver]
effect of metal ion on FAOD-L, in words [4]: inhibited completely

c1ccc(-c2ccccn2)nc1 [α,α-Dipyridyl]
relative activity (%) ([2]; material 1 mM, None = 100): 67%

O=S(=O)([O-])[O-].[Fe+2] [FeSO4]
relative activity (%) [4]: 95%

O=C(O)CI [Acetic iodide]
relative activity (%) [2]: 66%

O=C(O)c1cc(SSc2ccc([N+](=O)[O-])c(C(=O)O)c2)ccc1[N+](=O)[O-] [DTNB, 5,5Dithiobis(2-nitrobenzoic acid)]
inhibition of FAOD-A activity, in words [2]: inhibit the FAOD-A activity completely
inhibition of FAOD-L activity, in words [3]: inhibit the FAOD-L activity strongly

[Cl][Mn][Cl] [MnCl2]
effect of metal ion on FAOD-A, in words [1]: inhibitory
relative activity (%) [1, 7]: 59%
relative activity (%) [4]: 101%

[Cl-].[Cl-].[Mg+2] [MgCl2]
relative activity (%) [1, 7]: 108%
relative activity (%) [4]: 101%

Fructosyl valine
Specific activity (%) [5, 8]: 20.5%
Specific activity (%) [6, 8]: 32.1%

[Cl-].[Rb+] [RbCl]
relative activity (%) [1, 7]: 107%

NNC(N)=O [semicarbazide]
relative activity (%) ([2]; material 1 mM, None = 100): 64%

O=C(N[C@@H](CCCCNCC(=O)[C@@H](O)[C@H](O)[C@H](O)CO)C(=O)O)OCc1ccccc1 [N^ε -fructosyl N^α -Z-lysine]
Specific activity (%) [5, 8]: 100%
Specific activity (%) [6, 8]: 100%

[Cl-].[Na+] [NaCl]
relative activity (%) ([1]; pH 8): 104%
